These results are taken from article PMC12107553 (ACS chemical neuroscience, 2024).

Where two headings read alike, the source gives them in different places. A value given as a limit tells only on which side of the number the result lay.

The target in one assay is GSK-3β (Homo sapiens, UniProt P49841). Nature of the assay: GSK-3β enzyme activity assay. The class given is biochemical. Conditions: for GSK-3β inhibition, result in words: titration from 20 μM.
For assay [1], the target named is T1, HIV reverse transcriptase (RT) (Human immunodeficiency virus type 1 group M subtype B, UniProt P03366). Nature of the assay: NNRTI assay. It counts as biochemical.
A further assay concerns HIV, WT. Conditions: read-out: HIV, WT EC50, cited from earlier work.
The target of assay [2] is T1, HIV reverse transcriptase (RT). Particulars: read-out: HIV RT IC50; marked *, previously reported data ref 19; cited from earlier work.

By IC50 is commonly meant the concentration that gives 50% inhibition. A word on the EC50: it is the concentration needed to bring the measured effect to its halfway point.

Chain of GSK-3β (P49841 whole entry): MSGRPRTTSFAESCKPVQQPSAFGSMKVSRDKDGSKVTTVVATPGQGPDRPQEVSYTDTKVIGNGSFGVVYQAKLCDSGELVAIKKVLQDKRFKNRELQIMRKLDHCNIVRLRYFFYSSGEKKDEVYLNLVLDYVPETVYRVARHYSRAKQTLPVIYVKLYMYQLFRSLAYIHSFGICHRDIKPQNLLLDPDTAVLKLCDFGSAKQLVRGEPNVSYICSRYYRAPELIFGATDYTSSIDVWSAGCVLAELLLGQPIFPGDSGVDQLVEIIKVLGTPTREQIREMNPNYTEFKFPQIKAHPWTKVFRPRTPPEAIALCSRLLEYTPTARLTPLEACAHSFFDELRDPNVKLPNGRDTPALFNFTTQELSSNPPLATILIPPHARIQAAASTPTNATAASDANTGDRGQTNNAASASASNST

For the compound `Cc1cc(/C=C/C#N)cc(C)c1Nc1ccnc(Nc2ccc(C#N)cc2)n1` [Rilpivirine], the IC50 at GSK-3β was determined as 502 nM; in assay [1] it was 160 nM. Moreover, the concentration giving a half-maximal response (EC50) with HIV, WT (whole cell activity ref 21) is 0.67 nM.

In the case of `O=C1Nc2ccc(Cl)cc2[C@@](C#CC2CC2)(C(F)(F)F)O1` [Efavirenz], on GSK-3β, the IC50 is above 20000 nM and the “GSK-3β inhibition, result in words” value is listed as “not inhibitors”. Besides, the EC50 with HIV, WT (whole cell activity ref 21) was 2 nM.

Compound `Cc1cc(C#N)cc(C)c1Oc1nc(Nc2ccc(C#N)cc2)nc(N)c1Br` [Etravirine] gave an IC50 at GSK-3β of 619 nM. For the same compound, the EC50 in the assay with HIV, WT (whole cell activity ref 21) was 1 nM.

As to `Cn1c(Cn2ccc(C(F)(F)F)c(Oc3cc(Cl)cc(C#N)c3)c2=O)n[nH]c1=O` [Doravirine], on GSK-3β, the 50% inhibitory concentration (IC50) was above 20000 nM and the “GSK-3β inhibition, result in words” value is “not inhibitors”. In addition, in assay [2], the concentration for half-maximal inhibition (IC50) was 20.7 nM. Besides, the EC50 in the assay with HIV, WT (whole cell activity ref 22) was 13 nM.

`Cc1ccnc2c1NC(=O)c1cccnc1N2C1CC1` [Nevirapine] gave an IC50 against GSK-3β of 1670 nM. The concentration for a half-maximal effect (EC50) in the assay with HIV, WT (whole cell activity ref 21) was 110 nM.
